Consider two compounds from patent publication US20030013688A1, “Synergistic combination of pravastatin and aspirin and method” (priority 2001, published 2003).

In this test the test system is any cardiac event, including ischemic stroke, or death. As to the kind of experiment: Bayesian hierarchical (Cox proportional hazards, Models 1 and 2) analysis of five secondary prevention studies (CARE, LIPID, PLAC I, PLAC II, REGRESS) for synergy between pravastatin and aspirin. The test is classed as in vivo, human. To be noted: for posterior mean of the coefficient γT: Model 1, logarithmic scale, relative to placebo (γplacebo=0). The method, then: In this study 40 mg pravastatin and 81 mg aspirin and higher were employed.
The primary endpoint was (i) any cardiac event, including ischemic stroke, or death. Secondary endpoints were individual components of the primary endpoint: (ii) any cardiac event, excluding stroke, (iii) any myocardial infarction, (iv) ischemic stroke, and (v) death. Analyses of these secondary endpoints as opposed to the primary endpoint are subject to greater uncertainty because the numbers of events are smaller. Therefore, conclusions for the secondary endpoints are likely to be less compelling.
The five studies available for addressing the synergy between pravastatin and aspirin for secondary prevention are listed and described in Table 1. Patients in all five studies were randomized to pravastatin vs placebo. All patients in all five studies are included in the primary analysis.
These may be due to random variability or to differences in patient populations. To take these differences into account, the role of patient characteristics was modeled, namely, the following covariates were considered: age, gender, smoking status, existence of coronary artery disease, and baseline values of LDL and HDL cholesterols, triglycerides, and diastolic and systolic blood pressures. In addition, the studies were conducted under different circumstances and by different investigators and even in different countries. Therefore, there may be additional study-specific differences that cannot be explained by differences in measured patient covariates. To allow for the possibility that treatment effects depend on study even after accounting for patient characteristics, Bayesian hierarchical modeling was used in which the study is one level of experimental unit and patient-within-study is a second level.
A brief introduction to Bayesian hierarchical modeling and a description of standard Bayesian hierarchical Cox proportional hazards model (Model 1) are set out below. An extension of the standard model that allows for treatment-specific time-varying hazards (Model 2) is also described. In addition, the sensitivity of the conclusions to the prior distribution of the parameter that regulates the extent of pooling of the various studies is addressed.
Model 1: Bayesian Hierarchical Analysis Using Cox Proportional Hazards Model
The Cox proportional hazards model takes hazard H to be of the form
where Z is the set of patient-specific covariates (listed above), β is the vector of regression coefficients and λ0(t) is the baseline hazard function. Treatment and study are considered separately from covariates Z, as follows: […]
Assessing the probability of synergy is straightforward in Model 1 when using Markov chain Monte Carlo (MCMC) methods. […] During each iteration of MCMC, this synergy condition is assessed. […]

Structures are written as SMILES.

On to `CC(=O)Oc1ccccc1C(=O)O` [aspirin, acetylsalicylic acid], for which the “posterior mean of the coefficient γT” value (primary endpoint (All events)) is reported as −0.0022. For the same compound, where the note is “primary endpoint (All events), Models 1 and 2”, the “performance in comparison with placebo alone” value is “essentially the same”. Besides, the “estimated event rate (hazard) compared among treatment arms” value (stroke, Model 2, year 1) was “lowest estimated event rate”.
As to `CC[C@H](C)C(=O)O[C@H]1C[C@H](O)C=C2C=C[C@H](C)[C@H](CC[C@@H](O)C[C@@H](O)CC(=O)O)[C@H]21` [pravastatin], the “posterior mean of the coefficient γT” value (primary endpoint (All events)) is reported as −0.0985.
